Test [1] deals with purified human autoBACE-2 (Homo sapiens (Human), UniProt Q9Y5Z0). Briefly: BACE-2 Assay (BACE-HTRF assay). It counts as biochemical. To be noted: Ki calculated from IC50 using the Cheng-Prusoff equation; read-out: BACE2 Ki. As for the experimental part: Inhibitor IC50s at purified human autoBACE-2 are determined in a time-resolved endpoint proteolysis assay that measures hydrolysis of the QSY7-[…]-Eu-amide FRET peptide substrate (BACE-HTRF assay). […] DMSO is present at 5% final concentration in the assay. Following laser excitation of sample wells at 320 nm, the fluorescence signal at 620 nm is collected for 400 ms following a 50 μs delay on a RUBYstar HTRF plate reader (BMG Labtechnologies). Raw RFU data is normalized to maximum (1.0 nM BACE/DMSO) and minimum (no enzyme/DMSO) RFU values. […] The Ki values are calculated from the IC50 using the Cheng-Prusoff equation.
Chain of purified human autoBACE-2 (Q9Y5Z0 63-473 limits assumed): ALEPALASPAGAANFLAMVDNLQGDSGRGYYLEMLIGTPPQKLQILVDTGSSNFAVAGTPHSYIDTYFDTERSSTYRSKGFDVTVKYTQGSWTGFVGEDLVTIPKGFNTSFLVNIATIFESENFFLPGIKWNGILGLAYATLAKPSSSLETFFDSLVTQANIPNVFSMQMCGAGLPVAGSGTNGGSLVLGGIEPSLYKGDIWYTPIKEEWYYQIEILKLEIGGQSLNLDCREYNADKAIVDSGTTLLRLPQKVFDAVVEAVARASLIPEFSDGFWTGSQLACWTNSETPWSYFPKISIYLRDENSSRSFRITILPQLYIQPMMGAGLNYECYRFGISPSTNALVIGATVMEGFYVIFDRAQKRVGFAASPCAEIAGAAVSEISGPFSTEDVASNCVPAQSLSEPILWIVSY

Test [2] addresses soluble human BACE1 catalytic domain (Homo sapiens (Human), UniProt P56817). Briefly: BACE1 HTRF FRET Assay. It counts as biochemical. The note with it: for Ki: Ki calculated from IC50 using the Cheng-Prusoff equation; for inhibition at 10 µM: read-out: BACE1 % Inh. at 10 μM. An excerpt: A homogeneous time-resolved FRET assay can be used to determine IC50 values for inhibitors of the soluble human BACE1 catalytic domain. This assay monitors the increase of 620 nm fluorescence that resulted from BACE1 cleavage of an APPswedish APP^swe mutant peptide FRET substrate (QSY7-[…]-Europium-amide). This substrate contains an N-terminal QSY7 moiety that serves as a quencher of the C-terminal Europium fluorophore (620 nm Em). In the absence of enzyme activity, 620 nm fluorescence is low in the assay and increased linearly over 3 hours in the presence of uninhibited BACE1 enzyme Inhibition of BACE1 cleavage of the QSY7-APP^swe-Eu substrate by inhibitors is manifested as a suppression of 620 nm fluorescence.
Reactions are initiated by addition of 10 μl of 600 nM QSY7-APP^swe-Eu substrate (200 nM final) to give a final reaction volume of 30 μl in a 384 well Nunc HTRF plate. The reactions are incubated at 30° C. for 1.5 hours. The 620 nm fluorescence is then read on a Rubystar HTRF plate reader (BMG Labtechnologies) using a 50 millisecond delay followed by a 400 millisecond acquisition time window Inhibitor IC50 values are derived from non-linear regression analysis of concentration response curves.

Chain of soluble human BACE1 catalytic domain (P56817 75-416): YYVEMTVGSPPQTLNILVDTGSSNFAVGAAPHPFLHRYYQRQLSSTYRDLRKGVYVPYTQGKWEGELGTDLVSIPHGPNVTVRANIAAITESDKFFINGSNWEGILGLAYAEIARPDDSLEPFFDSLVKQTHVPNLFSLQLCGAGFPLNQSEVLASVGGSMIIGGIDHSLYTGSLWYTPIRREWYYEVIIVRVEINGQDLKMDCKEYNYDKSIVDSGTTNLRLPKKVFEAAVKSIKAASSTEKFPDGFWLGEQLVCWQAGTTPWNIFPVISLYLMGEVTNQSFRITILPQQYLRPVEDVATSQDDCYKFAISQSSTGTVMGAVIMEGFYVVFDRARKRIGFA

A word on the Ki: it is a measure of affinity in units of concentration, obtained from inhibition or displacement. In the case of `C[C@@]1(c2cc(NC(=O)c3ccc(C(F)(F)F)cn3)ccc2F)CS(=O)(=O)C2(CCCC2)C(=N)N1` [Example 14], the Ki in test [1] is 2.1 nM; in test [2], 2.2 nM.
On to `C[C@@]1(c2cc([N+](=O)[O-])ccc2F)CS(=O)(=O)C2(CCCC2)C(=N)N1`, for which the Ki in test [1] was 734 nM. Further, the inhibition at 1 µM in test [2] (read-out: BACE1 % Inh. at 1 μM) turned out to be 44%.
As for `C[C@@]1(c2sc(-c3ccnc(-c4cccs4)c3)cc2Cl)CS(=O)(=O)[C@]2(CCOC2)C(=N)N1` [Example 62k], the Ki in test [1] was less than 20 nM; in test [2], 305 nM.
In the same order, the values of `C[C@@]1(c2cc(NC(=O)c3ccc(F)cn3)ccc2F)CS(=O)(=O)[C@]2(CCOC2)C(=N)N1` [Example 62b] are 4.3 nM and 24 nM.
Take `COc1cnc(C(=O)Nc2ccc(F)c([C@]3(C)CS(=O)(=O)[C@@]4(CCOC4)C(=N)N3)c2)cn1` [Example 63]: the inhibitory constant (Ki) in test [1] is less than 50 nM; in test [2], 41 nM.
Taken in the same sequence, the figures for `Cc1nc(C(=O)Nc2ccc(F)c([C@]3(C)CS(=O)(=O)C4(CCCC4)C(=N)N3)c2)no1` [Example 21] were 1.3 nM and 13.9 nM.
For `C[C@@]1(c2sc(C(=O)Nc3cccc(F)n3)cc2Cl)CS(=O)(=O)C2(CC2)C(=N)N1` [Example 79c], the inhibition constant Ki was less than 50 nM in test [1] and 227 nM in test [2].
`COc1ccc(C(=O)Nc2ccc(F)c([C@]3(C)CS(=O)(=O)C4(CCCC4)C(=N)N3)c2)nc1` [Example 15]: the inhibition constant Ki in test [1] was 0.6 nM; in test [2], 5.2 nM.
Taken in the same sequence, the figures for `C[C@@]1(c2cc(NC(=O)c3ccc(F)cn3)ccc2F)CS(=O)(=O)C2(CCOCC2)C(=N)N1` [Example 30] were 2.1 nM and 10.9 nM.
Taken in the same sequence, the figures for `COc1cnc(C(=O)Nc2ccc(F)c([C@]3(C)CS(=O)(=O)C4(CCOCC4)C(=N)N3)c2)cn1` [Example 32] were less than 50 nM and 16.3 nM.
In the same order, the values of `C[C@@]1(c2sc(-c3cncc(C#N)c3)cc2Cl)CS(=O)(=O)C2(CCC2)C(=N)N1` [Example 59] are less than 20 nM and 56 nM.
In the case of `C[C@@]1(c2cc(NC(=O)c3ccc(F)cn3)ccc2F)CS(=O)(=O)C2(CC(O)C2)C(=N)N1` (stereo partly shown) [Example 75], the values for the Ki in test [1] and in test [2] were 1.7 nM and 12.5 nM, respectively.
In the same order, the values of `C[C@@]1(c2cc(NC(=O)c3ccc(F)cn3)ccc2F)CS(=O)(=O)[C@@]2(CCOC2)C(=N)N1` [Example 63b] are 2.7 nM and 18.7 nM.
Taken in the same sequence, the figures for `C[C@@]1(c2sc(C(=O)Nc3cccc(Cl)n3)cc2Cl)CS(=O)(=O)C2(CC2)C(=N)N1` [Example 79b] were 4 nM and 17 nM.
In the same order, the values of `C[C@@]1(c2sc(Br)cc2Cl)CS(=O)(=O)C2(CCC2)C(=N)N1` are 531 nM and 1570 nM.
Regarding `C[C@@]1(c2cc(N)ccc2F)CS(=O)(=O)C2(CCCCC2)C(=N)N1`, the inhibition constant (Ki) in test [1] is 2800 nM. Also, the inhibition at 10 µM in test [2] was determined as 49%.
Consider `C[C@@]1(c2cc(NC(=O)c3cnc(C(F)(F)F)cn3)ccc2F)CS(=O)(=O)C2(CCCC2)C(=N)N1` [Example 16], for which the Ki in test [1] is less than 20 nM; in test [2], 13 nM.
Taken in the same sequence, the figures for `COc1cccc2cc(-c3cc(Cl)c([C@]4(C)CS(=O)(=O)[C@]5(CCOC5)C(=N)N4)s3)[nH]c12` [Example 62g] were 0.9 nM and 6.3 nM.
In the same order, the values of `C[C@@]1(c2cc(NC(=O)c3ccc(C#N)cn3)ccc2F)CS(=O)(=O)C2(CCC2)C(N)=N1` [Example 11] are less than 20 nM and 5.4 nM.
For `COc1cccc2cc(-c3cc(Cl)c([C@]4(C)CS(=O)(=O)C5(CC5)C(=N)N4)s3)[nH]c12` [Example 64], the inhibition constant Ki is 1 nM in test [1] and 10 nM in test [2].
For the compound `C[C@@]1(c2sc(-c3cncc(C#N)c3)cc2Cl)CS(=O)(=O)[C@@]2(CCOC2)C(=N)N1` [Example 63e], the inhibition constant (Ki) in test [1] was less than 50 nM; in test [2], 192 nM.
Take `COc1cc(C#N)cc(-c2cc(Cl)c([C@]3(C)CS(=O)(=O)C4(CCOCC4)C(=N)N3)s2)c1` [Example 57]: the values for the inhibitory constant (Ki) in test [1] and in test [2] were less than 20 nM and 161 nM, respectively.
Take `C[C@@]1(c2sc(-c3cncc(C#N)c3)cc2Cl)CS(=O)(=O)C2(CC2)C(=N)N1` [Example 65]: the inhibition constant (Ki) in test [1] was less than 50 nM; in test [2], 108 nM.
In the same order, the values of `C[C@@]1(c2sc(-c3cccc(-c4nnco4)c3)cc2Cl)CS(=O)(=O)C2(CC2)C(=N)N1` [Example 65a] are less than 50 nM and 11 nM.
Regarding `C[C@@]1(c2sc(-c3cccc(C(F)(F)F)c3)cc2Cl)CS(=O)(=O)C2(CCOCC2)C(=N)N1` [Example 52], the inhibitory constant (Ki) in test [1] was less than 50 nM; in test [2], 147 nM.
On to `C[C@@]1(c2cc(N)ccc2F)CS(=O)(=O)C2(CCC2)C(=N)N1`, for which the Ki in test [1] is 3970 nM. Further, the inhibition at 10 µM in test [2] came out at 54%.
On to `C[C@@]1(c2cc(NC(=O)c3ncc(F)cc3F)ccc2F)CS(=O)(=O)C2(CC2)C(=N)N1` [Example 4], for which the Ki in test [1] is 0.5 nM; in test [2] it was 5 nM.
On to `C[C@@]1(c2cc(NC(=O)c3ccc(F)cn3)ccc2F)CS(=O)(=O)C2(CCC(O)C2)C(=N)N1` (single isomer, unassigned) [Example 76a], for which the Ki is 2.4 nM in test [1] and 9.3 nM in test [2].
Taken in the same sequence, the figures for `C[C@@]1(c2sc(Br)cc2Cl)CS(=O)(=O)C2(CCCC2)C(=N)N1` were 134 nM and 447 nM.
Taken in the same sequence, the figures for `COc1ccc(C(=O)Nc2ccc(F)c([C@]3(C)CS(=O)(=O)C4(CC4)C(=N)N3)c2)nc1` [Example 5] were 1.9 nM and 3.4 nM.
Taken in the same sequence, the figures for `C[C@@]1(c2sc(Br)cc2Cl)CS(=O)(=O)C2(CCOCC2)C(=N)N1` were 1090 nM and 2370 nM.
Take `C[C@@]1(c2cc(NC(=O)c3cnsn3)ccc2F)CS(=O)(=O)C2(CCCC2)C(=N)N1` [Example 23]: the inhibitory constant (Ki) is 3.1 nM in test [1] and 108 nM in test [2].
Take `C[C@@]1(c2cc([N+](=O)[O-])ccc2F)CS(=O)(=O)C2(CCC2)C(=N)N1`: the inhibitory constant (Ki) in test [1] is 3200 nM; in test [2], 3630 nM.
With `C[C@@]1(c2sc(-c3cncc(N4CCOCC4)c3)cc2Cl)CS(=O)(=O)[C@@]2(CCOC2)C(=N)N1` [Example 63j], the Ki in test [2] was 3690 nM.
Same read-out and setting: the result for `Cc1cncc(NC(=O)c2cc(Cl)c([C@]3(C)CS(=O)(=O)C4(CCCCC4)C(=N)N3)s2)c1` [Example 80g] reads 2160 nM; that for `Cc1cc2cccc(NC(=O)c3cc(Cl)c([C@]4(C)CS(=O)(=O)C5(CCCCC5)C(=N)N4)s3)c2o1` [Example 80i], 6050 nM; that for `C[C@@]1(c2cc(-n3cc(-c4cccnc4)nn3)ccc2F)CS(=O)(=O)C2(CCC2)C(=N)N1` [Example 39b], 8560 nM.
On the same count and under the same terms, the result for `C[C@@]1(c2cc(NC(=O)c3ccc(S(C)(=O)=O)cn3)ccc2F)CS(=O)(=O)[C@]2(CCOC2)C(=N)N1` [Example 81z] reads 3170 nM.
On the same count and under the same terms, the result for `CCc1cncc(-c2cc(Cl)c([C@]3(C)CS(=O)(=O)[C@@]4(CCOC4)C(=N)N3)s2)c1` [Example 63i] reads 1780 nM; that for `Cn1ccc(NC(=O)c2cc(Cl)c([C@]3(C)CS(=O)(=O)C4(CCCCC4)C(=N)N3)s2)n1` [Example 80j], 2010 nM; that for `C[C@@]1(c2cc(NC(=O)CC(F)(F)F)ccc2F)CS(=O)(=O)[C@]2(CCOC2)C(=N)N1` [Example 81r], 3170 nM.
Take `C[C@@]1(c2cc(-c3cncc(Cl)c3)ccc2F)CS(=O)(=O)C2(CCCC2)C(=N)N1` [Example 37]: in test [2], the inhibitory constant (Ki) was 459 nM.
On to `C[C@@]1(c2cc(NC(=O)c3ccno3)ccc2F)CS(=O)(=O)[C@]2(CCOC2)C(=N)N1` [Example 81b], for which the Ki in test [2] is 300 nM.
Take `C[C@@]1(c2sc(C(=O)NCc3ccncn3)cc2Cl)CS(=O)(=O)C2(CCCCC2)C(=N)N1` [Example 80c]: in test [2], the Ki is 4150 nM.
In the case of `Cc1cc(C(=O)Nc2ccc(F)c([C@]3(C)CS(=O)(=O)[C@]4(CCOC4)C(=N)N3)c2)no1` [Example 81af], the Ki in test [2] was 1330 nM.
In the case of `C[C@@]1(c2cc(NC(=O)c3ncc(F)cc3F)ccc2F)CS(=O)(=O)[C@]2(CCOC2)C(=N)N1` [Example 81k], the inhibition constant (Ki) in test [2] was 26 nM.
As for `C[C@@]1(c2cc(NC(=O)c3ccc(Cl)cn3)ccc2F)CS(=O)(=O)C2(CCCCC2)C(=N)N1` [Example 24], the Ki in test [1] is less than 20 nM.
For the compound `C[C@@]1(c2cc(NC(=O)c3ncc(Cl)cc3Cl)ccc2F)CS(=O)(=O)C2(CCOCC2)C(=N)N1` [Example 31], the Ki in test [2] was 4.1 nM.
On the same count and under the same terms, next, `C[C@@]1(c2cc(NC(=O)c3ccc(Cl)cc3)ccc2F)CS(=O)(=O)[C@]2(CCOC2)C(=N)N1` [Example 81m]: 82 nM.

The record behind these values is patent US9181236B2, “2-spiro-substituted iminothiazines and their mono-and dioxides as bace inhibitors, compositions and their use” (Merck Sharp & Dohme Corp., priority 2011, dated 2015).
